Assay [1] has as its system 253J-BV cell (bladder cancer cell). As to the kind of experiment: morphological changes by light microscopy. The settings on record: 1-10 μM, 48 hr. It is filed as cell-based, human. The protocol: Bladder cancer cells grown in 6 well-plate were treated with 10 μM LY255283, 1 uM U75302 for 48 hr. Cells were then viewed using light microscopy (×100). SV-HUC-1 cell (normal bladder cell) and 253J-BV cell (bladder cancer cell) were treated with different concentrations (1-10 μM) of LY255283 (BLT2 specific antagonist), U75302 (BLT1 specific antagonist) for 48 hr. […] But normal bladder cell line was not effect on morphological change treated with BLT antagonists.

Assay [2] has as its system LNCaP cells. As to the kind of experiment: MTT assay, cell viability. The settings on record: increasing concentration, 48 hr, serum free RPMI 1640. It is filed as cell-based, human. The protocol: The effect of LY255283, BLT2 antagonist, on cell viability was examined by MTT assay. PWR-1E cells were seeded at a density of 1.0×10^4 cells/well and LNCaP cells were seeded at a density of 1.5×10^4 cells/well in 96-well culture dishes. After 36 hr, the medium was replaced with serum free RPMI 1640 and cells were stimulated with DMSO or LY255283 of increasing concentration. MTT (1 mg/mu) was added at 48 hr after LY255283 treatment and after 4 hr of further incubation the medium was replaced with DMSO. Then cells were incubated at room temperature for 10 min. The spectrophotometric absorbance of the samples was determined by using Ultra Multifunctional Microplate Reader at 540 nm. LNCaP cells and PWR-1E cells were stimulated with LY255283 of various concentration in serum free RPM11640.

Assay [3] relates to LNCaP cells. As to the kind of experiment: cell counting with trypan blue. It is filed as cell-based, human. The note with it: 1 μM and 5 μM, serum free RPMI 1640. As for the experimental part:
The effect of LY255283 was observed by counting of cell number. The cells were grown in 6-well cluster dishes to 70% confluence with 10% FBS-supplemented medium. At day 0, the medium was replaced with serum free RPMI 1640 and cells were stimulated with DMSO or 1 μM and 5 μM LY255283. The cells were harvested at various intervals. Cells were washed with PBS and collected by brief trypsinization. Total cell number was determined by counting each sample in duplicate with a hemocytometer using trypan blue dye. The cells treated with LY255283 in serum free RPM11640 were harvested at various intervals. […] In contrast, PWR-1 E cells which expressed few level of BLT2 were not affected by LY255283.

For assay [4], the system named is VEGF-induced angiogenesis. As to the kind of experiment: VEGF-induced angiogenesis (Matrigel plug, HUVEC tube formation and transmigration). Further details: species or system FVB mice. The note with it: mouse, in vivo. The protocol: FVB wild-type mice or BLT2 TG mice (female, 8-10 wk old) were subcutaneously injected with 400 μl of growth factor-reduced Matrigel from BD Biosciences containing heparin (20 units) and the agents to be tested. After 7 days, the mice were killed, and the solidified Matrigel was excised, fixed in 10% formalin, embedded in paraffin, cut into 5-μm sections and stained with anti-vWF antibody according to the manufacturer's instructions in the Blood Vessel Staining Kit (Chemicon). Each stained Matrigel section was photographed using a BX51 microscope equipped with a DP71 digital camera (Olympus), and the area of vWF-positive blood vessels was calculated using Image J software.
Growth factor-reduced Matrigel (300 μl; BD Biosciences, San Diego, Calif.) was added to each 24-well plate and polymerized for 12 h at 37° C. […] After 12 hr, five randomly selected areas were photographed using a CKX41 microscope equipped with a DP71 digital camera, and tube lengths were measured and quantified using Image J software, the image processing program developed at the U.S. National Institutes of Health (NIH). […]
The cells were then allowed to migrate to the lower side of the chambers, which contained LTB4, 12(S)-HETE or VEGF. […] Cell migration was quantified by counting the cells on the lower side of the filter after they were photographed using a CKX41 microscope equipped with a DP71 digital camera. […]

The next assay deals with PWR-1E cells. The assay can be described thus: cell cycle analysis / apoptosis measurement. It is filed as cell-based. The settings on record: 5 μM, 48 hr. As for the experimental part:
After LNCaP cells and PWR-1E cells were treated with 5 μM LY255283 for 48 hr, the cells were fixed with 70% ethanol and stained with Pl. Cell cycle was analyzed using flow cytometry. The cells grown in 6-well cluster dishes were stimulated with 5 μM LY255283 for 48 h in serum free RPMI 1640. The cells which were collected by brief trypsinization were fixed for 12 hr with 70% ethanol at 4° C. The cells were resuspended in PBS containing RNase A (100 μg/ml) and incubated for 30 min at 37° C. The cells were stained with propidium iodide (50 μg/ml) (Sigma). Acquisition and analysis was performed by FACS using Cell Quest Alias software (BD Bioscience).

As for `CCc1cc(C(C)=O)c(O)cc1OCCCCCC(C)(C)c1nnn[nH]1` [LY255283, 1-[5-ethyl-2-hydroxy-4-[[6-methyl-6-(1H-tetrazol-5-yl)heptyl]oxy]phenyl]-ethanone], the morphological change result in assay [1] is “exhibited membrane blebbing, detached from plate”. For the same compound, the “LNCaP cell viability (MTT)” value in the assay with LNCaP cells [2] is recorded as “dose dependent reduction”. Moreover, the “number of LNCaP cells” value in the assay with LNCaP cells [3] is on record as “significantly reduced”. For the same compound, in assay [4], the VEGF-induced angiogenesis entry was “suppressed VEGF-induced angiogenesis”. Further, in the assay on PWR-1E cells, the “apoptosis in prostate normal cells” value is “but not prostate normal cells”.

The values are drawn from patent US8518889B2, “Method of treating cancer with antibodies against long-form leukotriene B4 receptor BLT2” (Korea University Research & Business Foundation, priority 2007, dated 2013).
